Measurements published in ChEMBL document CHEMBL1143254, “Structure-based design of novel 2-amino-6-phenyl-pyrimido[5',4':5,6]pyrimido[1,2-a]benzimidazol-5(6H)-ones as potent and orally active inhibitors of lymphocyte specific kinase (Lck): synthesis, SAR, and in vivo anti-inflammatory activity” (J Med Chem, 2008).
In brackets after ≈: the same amount, converted by molar mass.

Target: Proto-oncogene tyrosine-protein kinase Src (Homo sapiens, UniProt P12931)
Assay: Inhibition of Src by HTRF assay

Proto-oncogene tyrosine-protein kinase Src, sequence (P12931 2-536 limits assumed): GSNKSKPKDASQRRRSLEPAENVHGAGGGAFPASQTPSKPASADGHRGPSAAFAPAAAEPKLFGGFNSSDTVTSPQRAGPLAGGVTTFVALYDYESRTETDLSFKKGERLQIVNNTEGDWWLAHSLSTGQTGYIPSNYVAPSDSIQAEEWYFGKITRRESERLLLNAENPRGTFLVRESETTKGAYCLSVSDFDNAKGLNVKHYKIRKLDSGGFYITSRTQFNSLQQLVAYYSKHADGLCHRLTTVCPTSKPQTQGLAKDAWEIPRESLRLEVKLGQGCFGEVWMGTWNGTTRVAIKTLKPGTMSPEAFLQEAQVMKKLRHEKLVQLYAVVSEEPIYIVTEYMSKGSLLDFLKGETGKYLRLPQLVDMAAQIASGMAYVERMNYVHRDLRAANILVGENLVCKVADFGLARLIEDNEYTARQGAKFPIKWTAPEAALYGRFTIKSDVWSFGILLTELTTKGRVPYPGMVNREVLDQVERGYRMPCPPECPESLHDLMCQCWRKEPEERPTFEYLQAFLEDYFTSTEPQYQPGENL

Structure (SMILES)	IC50 [nM]
CN1CCN(c2ccc(Nc3ncc4c(=O)n(-c5c(Cl)cccc5Cl)c5nc6ccccc6n5c4n3)cc2)CC1	49
COc1ccc(Cl)cc1-n1c(=O)c2cnc(Nc3ccc(N4CCN(C)CC4)cc3)nc2n2c3ccccc3nc12	1400
COc1cc(Nc2ncc3c(=O)n(-c4c(C)cccc4C)c4nc5ccccc5n4c3n2)ccc1OCCN1CCN(C)CC1	240
Cc1cccc(-n2c(=O)c3cnc(Nc4ccc(N5CCN(C)CC5)cc4)nc3n3c4ccccc4nc23)c1	1000

The next lines start with the values.

IC50 [nM]	Structure (SMILES)
8300	CCCCOc1ccc(-n2c(=O)c3cnc(Nc4ccc(N5CCN(C)CC5)cc4)nc3n3c4ccccc4nc23)cc1
44	COc1cc(Nc2ncc3c(=O)n(-c4c(C)cccc4C)c4nc5ccccc5n4c3n2)cc(OC)c1OCCN1CCOCC1
160	Cc1cccc(C)c1-n1c(=O)c2cnc(Nc3ccc(OCCN4CCN(C)CC4)c(F)c3)nc2n2c3ccccc3nc12
160	Cc1cccc(C)c1-n1c(=O)c2cnc(Nc3ccc(OCCCN4CCCCC4)cc3)nc2n2c3ccccc3nc12
440	Cc1cccc(C)c1-n1c(=O)c2cnc(Nc3ccc(OCCN(C)C)cc3)nc2n2c3ccccc3nc12

Target: Mitogen-activated protein kinase 14 (Homo sapiens, UniProt Q16539)
Sequence (Q16539 whole entry): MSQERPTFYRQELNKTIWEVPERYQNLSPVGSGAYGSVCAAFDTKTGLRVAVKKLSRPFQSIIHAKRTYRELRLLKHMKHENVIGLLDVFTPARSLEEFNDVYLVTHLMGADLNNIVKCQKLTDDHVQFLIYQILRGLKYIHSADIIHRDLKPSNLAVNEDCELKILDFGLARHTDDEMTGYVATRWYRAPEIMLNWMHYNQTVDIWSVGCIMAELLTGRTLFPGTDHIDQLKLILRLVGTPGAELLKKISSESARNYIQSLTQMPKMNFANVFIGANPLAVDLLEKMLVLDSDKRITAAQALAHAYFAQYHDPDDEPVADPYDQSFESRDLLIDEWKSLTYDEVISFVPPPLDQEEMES
Assay: Inhibition of p38-alpha by HTRF assay

Structure (SMILES)	IC50 [nM]
COc1cc(Nc2ncnc(-n3c(Nc4c(C)cccc4C)nc4ccccc43)n2)cc(OC)c1OC	78
COc1cc(Nc2ncnc(-n3c(Nc4ccccc4)nc4ccccc43)n2)cc(OC)c1OC	463
COc1cc(Nc2ncc3c(=O)n(-c4c(C)cccc4C)c4nc5ccccc5n4c3n2)ccc1OCCN1CCN(C)CC1	> 10000

Other lines, results leading:

IC50 [nM]	Structure (SMILES)
> 10000	COc1cc(Nc2ncc3c(=O)n(-c4c(C)cccc4C)c4nc5ccccc5n4c3n2)cc(OC)c1OCCN1CCOCC1
> 10000	Cc1cccc(C)c1-n1c(=O)c2cnc(Nc3ccc(OCCN4CCN(C)CC4)c(F)c3)nc2n2c3ccccc3nc12
4300	Cc1cccc(C)c1-n1c(=O)c2cnc(Nc3ccc(OCCCN4CCCCC4)cc3)nc2n2c3ccccc3nc12
> 10000	Cc1cccc(C)c1-n1c(=O)c2cnc(Nc3ccc(OCCN(C)C)cc3)nc2n2c3ccccc3nc12

Target: Vascular endothelial growth factor receptor 2 (Homo sapiens, UniProt P35968)
Sequence (P35968 whole entry): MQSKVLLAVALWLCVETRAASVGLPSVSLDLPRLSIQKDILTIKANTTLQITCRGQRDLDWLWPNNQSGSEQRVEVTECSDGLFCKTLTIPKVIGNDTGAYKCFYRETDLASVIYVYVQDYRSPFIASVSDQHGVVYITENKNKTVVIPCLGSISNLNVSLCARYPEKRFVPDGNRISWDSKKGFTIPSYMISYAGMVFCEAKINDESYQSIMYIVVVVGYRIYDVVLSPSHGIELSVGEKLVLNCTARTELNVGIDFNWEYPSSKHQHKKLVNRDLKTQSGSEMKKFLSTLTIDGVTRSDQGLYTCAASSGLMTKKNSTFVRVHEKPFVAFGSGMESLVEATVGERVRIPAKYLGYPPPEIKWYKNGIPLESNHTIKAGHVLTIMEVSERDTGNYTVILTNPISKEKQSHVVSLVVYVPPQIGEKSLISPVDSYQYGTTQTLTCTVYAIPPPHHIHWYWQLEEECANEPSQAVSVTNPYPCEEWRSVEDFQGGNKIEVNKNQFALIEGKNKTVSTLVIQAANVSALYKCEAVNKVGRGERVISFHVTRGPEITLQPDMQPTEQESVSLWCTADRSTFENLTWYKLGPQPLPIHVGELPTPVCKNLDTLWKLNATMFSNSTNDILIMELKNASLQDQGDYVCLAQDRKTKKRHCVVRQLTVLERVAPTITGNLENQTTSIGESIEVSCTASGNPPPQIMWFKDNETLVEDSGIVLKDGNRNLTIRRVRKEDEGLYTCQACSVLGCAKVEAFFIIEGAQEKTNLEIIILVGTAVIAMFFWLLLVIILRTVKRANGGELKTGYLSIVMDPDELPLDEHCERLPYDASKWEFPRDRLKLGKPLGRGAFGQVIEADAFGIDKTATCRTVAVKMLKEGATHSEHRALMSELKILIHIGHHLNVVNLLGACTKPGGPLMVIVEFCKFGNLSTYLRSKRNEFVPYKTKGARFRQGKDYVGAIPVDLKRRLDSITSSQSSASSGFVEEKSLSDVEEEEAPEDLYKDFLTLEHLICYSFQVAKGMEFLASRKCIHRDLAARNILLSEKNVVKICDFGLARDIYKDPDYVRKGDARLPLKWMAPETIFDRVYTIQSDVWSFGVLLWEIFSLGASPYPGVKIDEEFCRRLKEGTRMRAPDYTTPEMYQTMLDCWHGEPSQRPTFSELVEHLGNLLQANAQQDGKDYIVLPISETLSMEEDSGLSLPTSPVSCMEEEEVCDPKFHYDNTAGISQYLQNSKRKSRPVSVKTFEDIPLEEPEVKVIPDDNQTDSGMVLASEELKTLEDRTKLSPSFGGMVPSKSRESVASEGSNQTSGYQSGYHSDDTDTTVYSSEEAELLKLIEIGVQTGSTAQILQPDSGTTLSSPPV
Assay: Inhibition of KDR by HTRF assay

Structure (SMILES)	IC50 [nM]
COc1cc(Nc2ncnc(-n3c(Nc4c(C)cccc4C)nc4ccccc43)n2)cc(OC)c1OC	4
CN1CCN(c2ccc(Nc3ncc4c(=O)n(-c5c(Cl)cccc5Cl)c5nc6ccccc6n5c4n3)cc2)CC1	530
COc1ccc(Cl)cc1-n1c(=O)c2cnc(Nc3ccc(N4CCN(C)CC4)cc3)nc2n2c3ccccc3nc12	> 25000
COc1cc(Nc2ncc3c(=O)n(-c4c(C)cccc4C)c4nc5ccccc5n4c3n2)ccc1OCCN1CCN(C)CC1	5500
Cc1cccc(-n2c(=O)c3cnc(Nc4ccc(N5CCN(C)CC5)cc4)nc3n3c4ccccc4nc23)c1	> 25000

The next lines start with the values.

IC50 [nM]	Structure (SMILES)
> 25000	CCCCOc1ccc(-n2c(=O)c3cnc(Nc4ccc(N5CCN(C)CC5)cc4)nc3n3c4ccccc4nc23)cc1
1700	COc1cc(Nc2ncc3c(=O)n(-c4c(C)cccc4C)c4nc5ccccc5n4c3n2)cc(OC)c1OCCN1CCOCC1
7400	Cc1cccc(C)c1-n1c(=O)c2cnc(Nc3ccc(OCCN4CCN(C)CC4)c(F)c3)nc2n2c3ccccc3nc12
5100	Cc1cccc(C)c1-n1c(=O)c2cnc(Nc3ccc(OCCCN4CCCCC4)cc3)nc2n2c3ccccc3nc12
6600	Cc1cccc(C)c1-n1c(=O)c2cnc(Nc3ccc(OCCN(C)C)cc3)nc2n2c3ccccc3nc12

Tested on: T-cell
Assay: Inhibition of anti-CD3/CD28-induced IL2 production in human T cells
Type: functional, cell-based

IC50 [nM]	Structure (SMILES)
360	COc1cc(Nc2ncc3c(=O)n(-c4c(C)cccc4C)c4nc5ccccc5n4c3n2)cc(OC)c1OCCN1CCOCC1
16000	COc1cc(Nc2ncc3c(=O)n(-c4c(C)cccc4C)c4nc5ccccc5n4c3n2)ccc1OCCN1CCN(C)CC1
2700	Cc1cccc(C)c1-n1c(=O)c2cnc(Nc3ccc(OCCN4CCN(C)CC4)c(F)c3)nc2n2c3ccccc3nc12
3600	Cc1cccc(C)c1-n1c(=O)c2cnc(Nc3ccc(OCCCN4CCCCC4)cc3)nc2n2c3ccccc3nc12

Tested on: Lymphocyte
Assay: Inhibition of T cell activation in human peripheral blood lymphocytes by mixed lymphocyte reaction
Type: functional, cell-based

Structure (SMILES)	IC50 [nM]
CN1CCN(c2ccc(Nc3ncc4c(=O)n(-c5c(Cl)cccc5Cl)c5nc6ccccc6n5c4n3)cc2)CC1	1100
COc1ccc(Cl)cc1-n1c(=O)c2cnc(Nc3ccc(N4CCN(C)CC4)cc3)nc2n2c3ccccc3nc12	1000
COc1cc(Nc2ncc3c(=O)n(-c4c(C)cccc4C)c4nc5ccccc5n4c3n2)ccc1OCCN1CCN(C)CC1	150

Second part, the compound after the results:

IC50 [nM]	Structure (SMILES)
180	COc1cc(Nc2ncc3c(=O)n(-c4c(C)cccc4C)c4nc5ccccc5n4c3n2)cc(OC)c1OCCN1CCOCC1
510	Cc1cccc(C)c1-n1c(=O)c2cnc(Nc3ccc(OCCN4CCN(C)CC4)c(F)c3)nc2n2c3ccccc3nc12
370	Cc1cccc(C)c1-n1c(=O)c2cnc(Nc3ccc(OCCCN4CCCCC4)cc3)nc2n2c3ccccc3nc12
84	Cc1cccc(C)c1-n1c(=O)c2cnc(Nc3ccc(OCCN(C)C)cc3)nc2n2c3ccccc3nc12

Tested on: not listed separately
Assay: Solubility in simulated intestinal fluid at pH 6.8
Type: physicochemical

solubility [µg/mL]	Structure (SMILES)
18 (≈ 29 µM)	COc1cc(Nc2ncc3c(=O)n(-c4c(C)cccc4C)c4nc5ccccc5n4c3n2)cc(OC)c1OCCN1CCOCC1
101 (≈ 176 µM)	Cc1cccc(C)c1-n1c(=O)c2cnc(Nc3ccc(OCCCN4CCCCC4)cc3)nc2n2c3ccccc3nc12

Target: Tyrosine-protein kinase Lck (Homo sapiens, UniProt P06239)
Sequence (P06239 whole entry): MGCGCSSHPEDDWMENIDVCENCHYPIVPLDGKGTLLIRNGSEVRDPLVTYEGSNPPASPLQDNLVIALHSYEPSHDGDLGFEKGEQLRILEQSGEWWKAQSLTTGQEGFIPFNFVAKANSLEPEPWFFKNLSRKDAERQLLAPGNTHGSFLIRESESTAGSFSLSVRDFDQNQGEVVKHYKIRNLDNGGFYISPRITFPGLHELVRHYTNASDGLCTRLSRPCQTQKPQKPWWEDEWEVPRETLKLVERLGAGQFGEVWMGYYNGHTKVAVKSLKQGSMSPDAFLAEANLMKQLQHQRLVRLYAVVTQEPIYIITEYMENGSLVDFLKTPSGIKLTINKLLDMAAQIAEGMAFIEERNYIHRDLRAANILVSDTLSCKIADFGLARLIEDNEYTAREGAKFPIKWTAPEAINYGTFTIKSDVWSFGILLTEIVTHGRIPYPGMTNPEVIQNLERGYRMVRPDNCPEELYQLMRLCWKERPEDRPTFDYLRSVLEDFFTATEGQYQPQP
Description: Inhibition of Lck by HTRF assay

Structure (SMILES)	IC50 [nM]
COc1cc(Nc2ncnc(-n3c(Nc4c(C)cccc4C)nc4ccccc43)n2)cc(OC)c1OC	1
CN1CCN(c2ccc(Nc3ncc4c(=O)n(-c5c(Cl)cccc5Cl)c5nc6ccccc6n5c4n3)cc2)CC1	10
COc1ccc(Cl)cc1-n1c(=O)c2cnc(Nc3ccc(N4CCN(C)CC4)cc3)nc2n2c3ccccc3nc12	23
COc1cc(Nc2ncc3c(=O)n(-c4c(C)cccc4C)c4nc5ccccc5n4c3n2)ccc1OCCN1CCN(C)CC1	19
Cc1cccc(-n2c(=O)c3cnc(Nc4ccc(N5CCN(C)CC5)cc4)nc3n3c4ccccc4nc23)c1	96

Other lines, results leading:

IC50 [nM]	Structure (SMILES)
4600	CCCCOc1ccc(-n2c(=O)c3cnc(Nc4ccc(N5CCN(C)CC5)cc4)nc3n3c4ccccc4nc23)cc1
10	COc1cc(Nc2ncc3c(=O)n(-c4c(C)cccc4C)c4nc5ccccc5n4c3n2)cc(OC)c1OCCN1CCOCC1
23	Cc1cccc(C)c1-n1c(=O)c2cnc(Nc3ccc(OCCN4CCN(C)CC4)c(F)c3)nc2n2c3ccccc3nc12
12	Cc1cccc(C)c1-n1c(=O)c2cnc(Nc3ccc(OCCCN4CCCCC4)cc3)nc2n2c3ccccc3nc12
28	Cc1cccc(C)c1-n1c(=O)c2cnc(Nc3ccc(OCCN(C)C)cc3)nc2n2c3ccccc3nc12
